# Reference: patent US10888547B2, “Amorphous and a crystalline form of genz 112638 hemitartrate as inhibitor of glucosylceramide synthase” (Genzyme Corporation, priority 2009, dated 2021)
# Key:
# GM3 in B16/F10 cells = experiment: Flow cytometry of cell surface GM3 in intact cells; type: cell-based
# Excerpt: Since […] the first and rate-limiting step in the biosynthesis of glycosphingolipids, a flow cytometry assay that measured cell surface levels of GM 1 and GM3 was used to indirectly assess the activity of the inhibitor in intact cells.
# Fabry mice = experiment: Monotherapy of Fabry mice, drug in diet; type: in vivo, mouse; conditions: 300 mg/kg per day in diet, 11 months
# Protocol: For the monotherapy studies, Fabry mice were put on study at 1 month old (prevention model). Treatment groups received Formula (I) Hemitartrate (Genzyme Corp., Cambridge, Mass.) as a component of the pellet food diet. The drug was formulated at 0.15% (w/w) in standard 5053 mouse chow (TestDiet, Richmond, Ind.) and provided ad libitum.
# (§1) Quantitation of GL-3 was by Tandem Mass Spectrometry essentially as for GL-1.
# (§2) Hot plate Assay was performed as described previously (Ziegler, R J et al. Molec. Ther. 15(3), 492-500 (2007).
# SRT was evaluated in a mouse model of Fabry disease, which is caused by a deficiency of α-galactosidase A activity. Therapy with Formula (I) Hemitartrate started with one month-old Fabry mice and continued until the mice reached one year of age. […] Behavioral tests (i.e., hot-plate assay) and biochemical tests (i.e., urinalysis and GL-3 level analysis in tissues/blood/urine) of the mice were performed bimonthly.
# Fabry-Rag mice = experiment: Combination ERT/SRT therapy of Fabry-Rag mice; type: in vivo, mouse; conditions: ERT 1 mg/kg α-galactosidase A i.v., SRT 300 mg/kg daily in diet
# Protocol: For the combination therapy studies, Fabry-Rag mice were put on study at 3 months old (treatment model). Mice in group A received intravenous injections of recombinant human alpha-galactosidase A (Genzyme Corp.) at a dose of 1 mg/kg every 2 months (i.e. 3, 5, 7 and 9 months old). Group B received the same intravenous enzyme doses plus it received Formula (I) Hemitartrate (Genzyme Corp., Cambridge, Mass.) as a component of the pellet food diet. The drug was formulated at 0.15% (w/w) in standard 5053 mouse chow (TestDiet, Richmond, Ind.) and provided ad libitum. […] Group C received enzyme injections every 4 months (i.e. 3 and 7 months old) and was on the same drug-in-food diet as group B. Group D received only the drug-in-food diet (same as groups B and C). Group E was untreated Fabry-Rag mice and group F were wild-type controls.
# as §1, §2
# Beginning at three-months of age, the mice were subjected to a schedule of behavioral tests (i.e. hot-plate assay) and biochemical tests (i.e., GL-3 level analysis in tissues/blood/urine), as shown in FIG. 10.
# [1] = target: T1, Lysosomal glucocerebrosidase (GBA1) (Homo sapiens, UniProt P04062); experiment: Lysosomal glucocerebrosidase in intact human cells / FACS in K562 cells; type: cell-based
# T1 construct: endogenous in cells; K562 cells for the FACS assay
# T1 sequence (P04062 40-536): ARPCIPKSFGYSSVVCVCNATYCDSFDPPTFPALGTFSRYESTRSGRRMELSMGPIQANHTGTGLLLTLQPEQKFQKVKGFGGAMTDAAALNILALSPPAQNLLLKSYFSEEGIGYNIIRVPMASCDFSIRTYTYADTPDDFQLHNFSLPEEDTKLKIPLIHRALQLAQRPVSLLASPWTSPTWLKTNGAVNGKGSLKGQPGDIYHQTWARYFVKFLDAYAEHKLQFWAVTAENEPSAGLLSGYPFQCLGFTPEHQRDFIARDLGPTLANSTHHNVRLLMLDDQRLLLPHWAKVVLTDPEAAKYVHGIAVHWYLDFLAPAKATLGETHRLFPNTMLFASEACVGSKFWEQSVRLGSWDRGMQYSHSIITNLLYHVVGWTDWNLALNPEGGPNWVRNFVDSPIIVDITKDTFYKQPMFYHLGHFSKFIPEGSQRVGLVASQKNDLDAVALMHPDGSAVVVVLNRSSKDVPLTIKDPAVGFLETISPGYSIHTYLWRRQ
# Protocol: (§3) Non-lysosomal glucosylceramidase and lysosomal glucocerebrosidase were assayed in intact human cells using C6-NBD-glucosylceramide as substrate (see H. S. Overkleeft, et al. J. Biol. Chem. 273 (1998) 26522-26527, the entire teachings of which are incorporated herein by reference). Conduritol β epoxide (a specific inhibitor of lysosomal glucocerebrosidase) was used to differentiate lysosomal versus the non-lysosomal activity. Glucocerebrosidase activity was also measured by fluorescence-activated cell sorting (FACS). […] Cells were immediately chilled on ice and the fluorescence quantitated is above.
# [2] = target: T2, Non-lysosomal glucosylceramidase (GBA2) (Homo sapiens, UniProt Q9HCG7); experiment: Non-lysosomal glucosylceramidase in intact human cells, C6-NBD-glucosylceramide substrate; type: cell-based; conditions: read-out: Enzyme specificities, IC50: Non-lysosomal glucosylceramidase (GBA2)
# T2 construct: were assayed in intact human cells using C6-NBD-glucosylceramide as substrate; endogenous in cells
# T2 sequence (Q9HCG7 1-927): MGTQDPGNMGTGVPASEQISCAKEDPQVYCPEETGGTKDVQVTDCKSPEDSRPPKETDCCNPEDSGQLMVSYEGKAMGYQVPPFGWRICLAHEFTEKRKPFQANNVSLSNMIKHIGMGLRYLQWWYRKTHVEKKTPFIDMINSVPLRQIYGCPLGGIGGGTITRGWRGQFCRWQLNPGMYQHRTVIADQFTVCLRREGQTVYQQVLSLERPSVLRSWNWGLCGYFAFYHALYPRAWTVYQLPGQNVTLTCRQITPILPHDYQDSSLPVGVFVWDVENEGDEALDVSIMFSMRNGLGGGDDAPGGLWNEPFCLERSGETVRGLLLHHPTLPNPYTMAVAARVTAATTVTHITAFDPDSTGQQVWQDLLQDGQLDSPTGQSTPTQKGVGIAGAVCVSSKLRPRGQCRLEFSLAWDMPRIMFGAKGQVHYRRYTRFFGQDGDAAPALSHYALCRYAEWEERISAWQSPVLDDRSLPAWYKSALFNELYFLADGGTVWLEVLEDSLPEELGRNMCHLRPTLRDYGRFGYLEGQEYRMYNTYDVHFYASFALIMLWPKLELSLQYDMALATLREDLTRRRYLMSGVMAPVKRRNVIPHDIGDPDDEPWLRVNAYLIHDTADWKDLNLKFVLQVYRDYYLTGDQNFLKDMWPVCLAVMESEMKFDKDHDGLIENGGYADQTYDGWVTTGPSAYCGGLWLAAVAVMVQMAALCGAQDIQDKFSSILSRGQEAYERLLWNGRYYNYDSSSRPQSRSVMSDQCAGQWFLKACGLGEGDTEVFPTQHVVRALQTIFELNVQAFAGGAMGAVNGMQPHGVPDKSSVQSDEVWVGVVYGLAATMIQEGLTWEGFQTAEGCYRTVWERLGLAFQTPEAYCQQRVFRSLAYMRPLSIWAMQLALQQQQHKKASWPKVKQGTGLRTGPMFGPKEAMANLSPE
# Protocol: as §3
structure (smiles),measurement,setting,value
CCCCCCCC(=O)N[C@H](CN1CCCC1)[C@H](O)c1ccc2c(c1)OCCO2 [Formula (I) Hemitartrate],IC50,"GM3 in B16/F10 cells; Mus musculus, 72 h incubation, printed range 12-48 nM, read-out: mean IC50 for inhibiting the cell surface presentation of GM3",0.029 µM
same,cellular toxicity,"GM3 in B16/F10 cells; up to the highest dose (0.6-1000 nM), 72 h",No overt cellular toxicity
same,presentation of insensitivity to an aversive heat stimulus (hot-plate assay),Fabry mice,later presentation
same,"urinalysis factors (urine volume, creatinine and sodium levels)",Fabry mice,prevention of deterioration
same,onset of heat-insensitivity,Fabry-Rag mice,delays onset
same,urine GL-3 levels,Fabry-Rag mice,reduces
same,blood GL-3 levels,Fabry-Rag mice; from 3 months of age,does not
same,inhibition of glucocerebrosidase activity,[1]; at the effective dose,no measurable inhibition
same,IC50,"[1]; read-out: Enzyme specificities, IC50: Lysosomal glucocerebrosidase (GBA1)",> 2500 µM
same,inhibition of lysosomal glucocerebrosidase,[1]; up to the highest concentration of 2500 μM,no inhibition
same,IC50,[2],1600 µM
